Each compound was assayed against PIK3CA (human) (UniProt P42336) (assay: Assessment of PI3KCA Kinase Activity).
Chain of PIK3CA (human) (P42336 whole entry, looked up): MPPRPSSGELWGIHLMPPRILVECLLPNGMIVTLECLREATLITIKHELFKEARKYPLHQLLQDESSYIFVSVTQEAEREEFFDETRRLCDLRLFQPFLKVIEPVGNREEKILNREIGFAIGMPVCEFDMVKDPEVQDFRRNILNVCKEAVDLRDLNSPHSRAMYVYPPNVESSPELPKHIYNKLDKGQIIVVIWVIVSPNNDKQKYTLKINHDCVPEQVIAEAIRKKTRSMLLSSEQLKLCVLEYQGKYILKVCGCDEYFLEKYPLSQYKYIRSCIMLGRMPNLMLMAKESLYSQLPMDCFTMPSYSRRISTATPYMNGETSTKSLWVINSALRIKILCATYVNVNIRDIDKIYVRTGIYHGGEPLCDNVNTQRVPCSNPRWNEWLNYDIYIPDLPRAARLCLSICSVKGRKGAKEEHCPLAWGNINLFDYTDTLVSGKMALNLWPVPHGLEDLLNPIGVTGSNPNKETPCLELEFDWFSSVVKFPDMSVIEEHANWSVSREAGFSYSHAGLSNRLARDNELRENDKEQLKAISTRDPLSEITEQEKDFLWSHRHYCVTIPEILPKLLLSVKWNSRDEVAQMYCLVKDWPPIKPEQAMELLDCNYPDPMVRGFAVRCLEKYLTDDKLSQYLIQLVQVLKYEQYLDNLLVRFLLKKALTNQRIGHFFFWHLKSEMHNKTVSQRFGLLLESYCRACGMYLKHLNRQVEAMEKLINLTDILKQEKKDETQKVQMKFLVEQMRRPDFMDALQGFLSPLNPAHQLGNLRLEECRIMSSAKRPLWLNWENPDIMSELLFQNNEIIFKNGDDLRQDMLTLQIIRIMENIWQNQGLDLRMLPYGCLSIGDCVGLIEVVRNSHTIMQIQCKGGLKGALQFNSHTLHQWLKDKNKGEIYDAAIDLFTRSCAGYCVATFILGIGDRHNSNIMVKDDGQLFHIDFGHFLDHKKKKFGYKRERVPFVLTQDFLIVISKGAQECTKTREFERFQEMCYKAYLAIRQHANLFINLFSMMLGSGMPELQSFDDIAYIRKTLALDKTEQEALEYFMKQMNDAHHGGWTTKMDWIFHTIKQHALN

Question: With `CCC(=O)Nc1cc(-c2nc(-c3ccc(Cl)cc3Cl)c(-c3ncc[nH]3)s2)ccn1` as the compound, how does the IC50 read?
Answer: < 100 nM

Question: `CC(=O)Nc1cc(-c2nc(-c3ccccc3Cl)c(-c3ncc[nH]3)s2)ccn1` was tested. Which IC50 did it give?
Answer: < 100 nM

Question: For `N#Cc1c(-c2ccnc(NC(=O)CCl)c2)sc(-c2nnc[nH]2)c1-c1ccc(Cl)cc1Cl`, which IC50 is on record?
Answer: < 100 nM

Question: `CCCOc1nc(-c2c(C)nn3ccccc23)sc1-c1nnc[nH]1` was tested. Which IC50 did it give?
Answer: < 100 nM

Question: With `CCOc1cccc(F)c1-c1nc(-c2c(C)nn3ccccc23)sc1-c1nc[nH]n1` as the compound, how does the IC50 read?
Answer: 100 to 1000 nM

Question: `CC(=O)Nc1cc(-c2nc(-c3cc(Cl)ccc3Cl)c(-c3ncc[nH]3)s2)ccn1` was tested. Which IC50 did it give?
Answer: < 100 nM

Question: Which IC50 does the source give for `COc1cccc(F)c1-c1nc(-c2c(C)nn3ccc(OCCN4CCN(S(C)(=O)=O)CC4)cc23)sc1-c1nc[nH]n1` here?
Answer: < 100 nM

Question: For `CCNc1cc(-c2nc(-c3cc(CCN)ccc3Cl)c(-c3ncc[nH]3)s2)ccn1`, which IC50 is on record?
Answer: 100 to 1000 nM

Question: For `Cc1nn2ccc(OCc3ccc(C(F)(F)F)nc3)cc2c1-c1nc(-c2ccccc2)c(-c2nc[nH]n2)s1`, which IC50 is on record?
Answer: < 100 nM

Question: With `COc1cccc(F)c1-c1nc(-c2c(C)nn3ccc(OC4CCN(C(C)=O)CC4)cc23)sc1-c1nc[nH]n1` as the compound, how does the IC50 read?
Answer: < 100 nM

Question: `CC(=O)Nc1cc(-c2nc(-c3ccc(Cl)cc3Cl)c(-c3nc(C)c(C)[nH]3)s2)ccn1` was tested. Which IC50 did it give?
Answer: 100 to 1000 nM

Question: For `COc1ccccc1-c1nc(-c2c(C)nn3ccccc23)sc1-c1nnc[nH]1`, which IC50 is on record?
Answer: < 100 nM

Question: How did the IC50 turn out when `CCOc1nc(-c2ccnc(NC(=O)c3cc(C)on3)c2)sc1-c1nnc[nH]1` was run?
Answer: 100 to 1000 nM

Question: For `Cc1nn2ccccc2c1-c1nc(-c2ccsc2)c(-c2nnc[nH]2)s1`, which IC50 is on record?
Answer: < 100 nM

Question: With `Cc1nn2ccccc2c1-c1nc(OCc2ccccc2)c(-c2nnc[nH]2)s1` as the compound, how does the IC50 read?
Answer: < 100 nM

Question: How did the IC50 turn out when `Nc1cc(-c2nc(-c3ccccc3)c(-c3nnc[nH]3)s2)ccn1` was run?
Answer: 100 to 1000 nM

Question: `Cc1nn2ccccc2c1-c1nc(-c2ccc(F)cc2F)c(-c2nc[nH]n2)s1` was tested. Which IC50 did it give?
Answer: < 100 nM

Question: How did the IC50 turn out when `Cc1nn2ccccc2c1-c1nc(-c2ccc(N3CCNCC3)nc2)c(-c2nc[nH]n2)s1` was run?
Answer: 100 to 1000 nM

Question: `N#Cc1c(-c2ccnc(N)n2)sc(-c2nnc[nH]2)c1-c1ccc(Cl)cc1Cl` was tested. Which IC50 did it give?
Answer: < 100 nM

Question: With `Cc1nn2ccccc2c1-c1nc(Cc2ccccc2)c(-c2nnc[nH]2)s1` as the compound, how does the IC50 read?
Answer: 100 to 1000 nM

Question: For `CC(=O)Nc1cc(-c2sc(-c3cnc[nH]3)c(-c3ccc(Cl)cc3Cl)c2C#N)ccn1`, which IC50 is on record?
Answer: < 100 nM

Question: With `N#Cc1c(-c2ccnc(NC(=O)C3CCC3)c2)sc(-c2nnc[nH]2)c1-c1ccc(Cl)cc1Cl` as the compound, how does the IC50 read?
Answer: 100 to 1000 nM

Question: With `CC(=O)Nc1cc(-c2sc(-c3nccn3Cc3cccnc3)c(-c3ccc(Cl)cc3Cl)c2C#N)ccn1` as the compound, how does the IC50 read?
Answer: 100 to 1000 nM

Question: `N#Cc1c(-c2ccnc(NS(=O)(=O)c3ccccc3)c2)sc(-c2nnc[nH]2)c1-c1ccc(Cl)cc1Cl` was tested. Which IC50 did it give?
Answer: 100 to 1000 nM

Question: `Cc1nc2ccc(CNCCN)cn2c1-c1nc(-c2ccccc2)c(-c2nnc[nH]2)s1` was tested. Which IC50 did it give?
Answer: < 100 nM

Question: Which IC50 does the source give for `Cc1nn2ccc(OCCN3CCN(C)C(=O)C3)cc2c1-c1nc(-c2ccccc2)c(-c2nc[nH]n2)s1` here?
Answer: < 100 nM

Question: Which IC50 does the source give for `CCOc1nc(-c2ccnc(NC(=O)Cc3cccs3)c2)sc1-c1nnc[nH]1` here?
Answer: 100 to 1000 nM

Question: How did the IC50 turn out when `Clc1ccc(-c2cc(-c3ccnc4[nH]cnc34)sc2-c2ncc[nH]2)c(Cl)c1` was run?
Answer: < 100 nM

Question: Which IC50 does the source give for `Cc1nn2ccsc2c1-c1nc(-c2ccccc2)c(-c2ccn[nH]2)s1` here?
Answer: < 100 nM

Question: For `CC(=O)Nc1cc(-c2nc(NC(C)=O)c(-c3ncc[nH]3)s2)ccn1`, which IC50 is on record?
Answer: 100 to 1000 nM

Question: For `CC(=O)Nc1cc(-c2nc(-c3ccc(Cl)cc3Cl)c(-c3nc(C#N)c[nH]3)s2)ccn1`, which IC50 is on record?
Answer: 100 to 1000 nM

Question: `CC(=O)Nc1cc(-c2nc(-c3ccc(N(C)C)cc3)c(-c3ncc[nH]3)s2)ccn1` was tested. Which IC50 did it give?
Answer: 100 to 1000 nM

Question: With `O=C(Nc1cc(-c2nc(-c3ccc(Cl)cc3Cl)c(-c3ncc[nH]3)s2)ccn1)C1CC1` as the compound, how does the IC50 read?
Answer: < 100 nM

Question: How did the IC50 turn out when `N#Cc1c(-c2ccnc(F)c2)sc(C(N)=O)c1-c1ccc(Cl)cc1Cl` was run?
Answer: 100 to 1000 nM

Question: How did the IC50 turn out when `Cc1nn2ccccc2c1-c1nc(-c2ccc[nH]2)c(-c2nc[nH]n2)s1` was run?
Answer: 100 to 1000 nM

Question: `c1ccc(-c2nc(-c3ccnc4ccsc34)sc2-c2nnc[nH]2)cc1` was tested. Which IC50 did it give?
Answer: < 100 nM

Question: `Cc1nn2ccc(OCc3ccccc3)cc2c1-c1nc(-c2ccccc2)c(-c2nnc[nH]2)s1` was tested. Which IC50 did it give?
Answer: < 100 nM

Question: With `Cc1nn2ccc(O)cc2c1-c1nc(-c2ccccc2)c(-c2nnc[nH]2)s1` as the compound, how does the IC50 read?
Answer: < 100 nM

Question: For `N#Cc1c(-c2ccnc(Nc3nccs3)c2)sc(-c2ncc[nH]2)c1-c1ccc(Cl)cc1Cl`, which IC50 is on record?
Answer: < 100 nM

Question: For `CCCC(=O)Nc1cc(-c2nc(OCC)c(-c3nnc[nH]3)s2)ccn1`, which IC50 is on record?
Answer: 100 to 1000 nM

Question: `CNc1cc(-c2sc(-c3ncc[nH]3)c(-c3ccc(Cl)cc3Cl)c2C#N)ccn1` was tested. Which IC50 did it give?
Answer: < 100 nM

Question: For `CC(=O)Nc1cc(-c2nc(-c3ccc(C)cc3)c(-c3ncc[nH]3)s2)ccn1`, which IC50 is on record?
Answer: < 100 nM

Question: `N#Cc1c(-c2ccnc(NS(N)(=O)=O)c2)sc(-c2nnc[nH]2)c1-c1ccc(Cl)cc1Cl` was tested. Which IC50 did it give?
Answer: 100 to 1000 nM

Question: How did the IC50 turn out when `CC(=O)N1CCN(CCOc2ccn3nc(C)c(-c4nc(-c5ccccc5)c(-c5nc[nH]n5)s4)c3c2)CC1` was run?
Answer: < 100 nM

Question: Which IC50 does the source give for `COCCCNc1cc(-c2sc(-c3nnc[nH]3)c(-c3ccc(Cl)cc3Cl)c2C#N)ccn1` here?
Answer: 100 to 1000 nM

Question: For `C/C=C/c1nc(-c2c(C)nn3ccccc23)sc1-c1nnc[nH]1`, which IC50 is on record?
Answer: < 100 nM

Question: `N#Cc1c(-c2ccnc(N)c2)sc(-c2ccn[nH]2)c1-c1ccc(Cl)cc1Cl` was tested. Which IC50 did it give?
Answer: 100 to 1000 nM

Question: `Cc1nn2ccc(OC3CCN(C(=O)CO)CC3)cc2c1-c1nc(-c2ccccc2)c(-c2nnc[nH]2)s1` was tested. Which IC50 did it give?
Answer: < 100 nM

Question: How did the IC50 turn out when `CC(=O)N1CCN(Cc2ccc3nc(C)c(-c4nc(-c5ccccc5)c(-c5nc[nH]n5)s4)n3c2)CC1` was run?
Answer: < 100 nM

Question: `CC(=O)Nc1cc(-c2nc(-c3ccc(Cl)cc3Cl)c(-c3nc(C)c[nH]3)s2)ccn1` was tested. Which IC50 did it give?
Answer: < 100 nM

Question: With `Cc1nc2ccc(CN(C)CCN)cn2c1-c1nc(-c2ccccc2)c(-c2nnc[nH]2)s1` as the compound, how does the IC50 read?
Answer: < 100 nM

Question: With `N#Cc1c(-c2cc(N)ncn2)sc(C(N)=O)c1-c1ccc(Cl)cc1Cl` as the compound, how does the IC50 read?
Answer: 100 to 1000 nM

Question: `Cc1nn2ccccc2c1-c1nc(-c2cccc3ncccc23)c(-c2nc[nH]n2)s1` was tested. Which IC50 did it give?
Answer: 100 to 1000 nM

Question: `COC[C@H]1CCCN1CCC(=O)Nc1cc(-c2nc(-c3ccccc3)c(-c3nnc[nH]3)s2)ccn1` was tested. Which IC50 did it give?
Answer: < 100 nM

Question: `COc1cncc(-c2nc(-c3ccnc(NC(C)=O)c3)sc2-c2ncc[nH]2)c1` was tested. Which IC50 did it give?
Answer: 100 to 1000 nM

Question: Which IC50 does the source give for `CC(=O)Nc1cc(-c2nc(-c3c(C)cccc3C)c(-c3nnc[nH]3)s2)ccn1` here?
Answer: 100 to 1000 nM

Question: `Cc1nn(C)c(C)c1-c1nc(-c2c(C)nn3ccccc23)sc1-c1nc[nH]n1` was tested. Which IC50 did it give?
Answer: < 100 nM

Question: `Cc1nn2ccccc2c1-c1nc(-c2cc(F)ccc2F)c(-c2nc[nH]n2)s1` was tested. Which IC50 did it give?
Answer: < 100 nM

Question: Which IC50 does the source give for `Cc1nn2ccccc2c1-c1nc(-c2cccc(F)c2)c(-c2nnc[nH]2)s1` here?
Answer: < 100 nM

Question: For `Nc1nc2c(-c3cc(-c4ccc(Cl)cc4Cl)c(-c4ncc[nH]4)s3)ncnc2s1`, which IC50 is on record?
Answer: < 100 nM

Question: `CCOc1nc(-c2ccnc(NC(=O)COC)c2)sc1-c1nnc[nH]1` was tested. Which IC50 did it give?
Answer: 100 to 1000 nM

Question: With `Cc1nn2ccc(OCCN3CCN(S(C)(=O)=O)CC3)cc2c1-c1nc(-c2ccccc2)c(-c2nc[nH]n2)s1` as the compound, how does the IC50 read?
Answer: < 100 nM

Question: With `CC(=O)Nc1cc(-c2sc(-c3ncc[nH]3)c(-c3ccc(Cl)cc3Cl)c2C#N)ccn1` as the compound, how does the IC50 read?
Answer: < 100 nM

Question: With `Cc1nn2ccccc2c1-c1nc(-c2cccc(OCc3ccccc3)c2)c(-c2nc[nH]n2)s1` as the compound, how does the IC50 read?
Answer: 100 to 1000 nM

Question: With `COc1ccc(-c2nc(-c3c(C)nn4ccccc34)sc2-c2nc[nH]n2)c(OC)c1` as the compound, how does the IC50 read?
Answer: < 100 nM

Question: For `CC(=O)N1CCC(Oc2ccn3nc(C)c(-c4nc(-c5ccccc5)c(-c5nc[nH]n5)s4)c3c2)CC1`, which IC50 is on record?
Answer: < 100 nM

Question: For `Nc1cc(-c2cc(-c3ccc(Cl)cc3Cl)c(-c3ncc[nH]3)s2)ccn1`, which IC50 is on record?
Answer: < 100 nM

Question: `CCOc1nc(-c2ccnc(NC(=O)CCc3ccccc3)c2)sc1-c1nnc[nH]1` was tested. Which IC50 did it give?
Answer: < 100 nM

Question: With `Cc1nn2ccccc2c1-c1nc(-c2ccc(NC(=O)OCc3ccccc3)cc2)c(-c2nc[nH]n2)s1` as the compound, how does the IC50 read?
Answer: 100 to 1000 nM
